Test results from PMC7959846, “Block of Voltage-Gated Sodium Channels by Atomoxetine in a State- and Use-dependent Manner” (Frontiers in Pharmacology, 2021).
“And” between values parts separate entries of the source, which are not always exact repeats. Equal values may be shown once.

Key:
hNav1.5 [1] = molecular target: T1, hNav1.5 (Homo sapiens, UniProt Q14524); parameters: expressed in transfected cells; host or cells: tsA201 (HEK-293 derivative); method as in Poulin et al., 2014; conditions: ref Poulin et al., 2014; cited from earlier work
T1 sequence (Q14524 whole entry): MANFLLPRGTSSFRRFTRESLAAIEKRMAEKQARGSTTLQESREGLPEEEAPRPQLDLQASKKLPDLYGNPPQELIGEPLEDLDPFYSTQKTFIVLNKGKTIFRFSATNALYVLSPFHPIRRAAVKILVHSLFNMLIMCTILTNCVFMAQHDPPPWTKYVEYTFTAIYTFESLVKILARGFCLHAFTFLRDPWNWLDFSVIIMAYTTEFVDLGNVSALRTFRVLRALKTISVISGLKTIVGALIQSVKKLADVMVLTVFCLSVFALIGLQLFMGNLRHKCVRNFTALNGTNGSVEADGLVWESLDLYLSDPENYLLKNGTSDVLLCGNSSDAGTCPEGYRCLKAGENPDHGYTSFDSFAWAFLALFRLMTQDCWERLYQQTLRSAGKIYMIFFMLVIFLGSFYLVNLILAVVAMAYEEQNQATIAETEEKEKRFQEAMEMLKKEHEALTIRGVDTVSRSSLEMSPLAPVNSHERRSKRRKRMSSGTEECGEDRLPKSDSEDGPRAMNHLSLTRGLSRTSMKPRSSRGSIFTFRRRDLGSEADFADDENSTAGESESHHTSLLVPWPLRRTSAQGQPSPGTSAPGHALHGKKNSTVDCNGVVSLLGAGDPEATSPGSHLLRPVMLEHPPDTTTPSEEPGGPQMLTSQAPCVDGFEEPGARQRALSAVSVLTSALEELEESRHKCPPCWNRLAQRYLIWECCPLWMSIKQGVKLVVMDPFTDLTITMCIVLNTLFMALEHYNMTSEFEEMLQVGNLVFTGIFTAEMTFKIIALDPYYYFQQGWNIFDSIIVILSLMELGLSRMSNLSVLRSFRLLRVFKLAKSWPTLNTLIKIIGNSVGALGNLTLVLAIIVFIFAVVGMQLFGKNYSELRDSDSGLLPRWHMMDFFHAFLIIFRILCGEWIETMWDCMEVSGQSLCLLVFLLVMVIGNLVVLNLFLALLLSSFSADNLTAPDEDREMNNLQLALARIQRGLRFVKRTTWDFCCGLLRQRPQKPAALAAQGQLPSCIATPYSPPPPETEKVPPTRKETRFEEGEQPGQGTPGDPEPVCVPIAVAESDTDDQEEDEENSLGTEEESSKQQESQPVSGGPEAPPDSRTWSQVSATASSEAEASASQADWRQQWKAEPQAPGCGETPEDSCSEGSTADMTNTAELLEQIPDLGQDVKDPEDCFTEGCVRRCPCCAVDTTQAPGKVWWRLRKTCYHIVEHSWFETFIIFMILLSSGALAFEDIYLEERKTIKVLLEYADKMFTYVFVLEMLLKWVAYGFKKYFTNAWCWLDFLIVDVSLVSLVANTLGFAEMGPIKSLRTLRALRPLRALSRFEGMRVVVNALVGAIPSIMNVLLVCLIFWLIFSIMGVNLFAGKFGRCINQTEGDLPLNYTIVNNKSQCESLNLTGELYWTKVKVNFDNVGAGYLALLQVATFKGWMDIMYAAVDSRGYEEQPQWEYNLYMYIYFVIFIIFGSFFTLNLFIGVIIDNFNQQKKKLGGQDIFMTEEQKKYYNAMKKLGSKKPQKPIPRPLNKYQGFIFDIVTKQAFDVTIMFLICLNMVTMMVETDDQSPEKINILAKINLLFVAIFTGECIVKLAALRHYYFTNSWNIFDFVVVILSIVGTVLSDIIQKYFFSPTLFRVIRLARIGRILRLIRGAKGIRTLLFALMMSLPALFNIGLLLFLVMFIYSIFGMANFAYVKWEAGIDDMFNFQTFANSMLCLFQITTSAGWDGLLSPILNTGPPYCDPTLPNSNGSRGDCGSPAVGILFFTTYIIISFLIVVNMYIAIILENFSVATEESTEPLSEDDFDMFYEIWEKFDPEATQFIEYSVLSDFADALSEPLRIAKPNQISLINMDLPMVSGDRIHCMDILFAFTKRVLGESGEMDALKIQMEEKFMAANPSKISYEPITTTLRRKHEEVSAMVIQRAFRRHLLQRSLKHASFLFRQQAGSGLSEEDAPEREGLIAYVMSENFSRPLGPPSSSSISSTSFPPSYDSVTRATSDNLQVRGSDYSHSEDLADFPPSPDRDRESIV

WCW-mutant = test system: WCW-mutant; parameters: method as in Poulin et al., 2014; conditions: ref Poulin et al., 2014; cited from earlier work
F1760C = test system: F1760C; parameters: method as in Poulin et al., 2014; conditions: anaesthetic binding site; ref Poulin et al., 2014; cited from earlier work
hNav1.5 [2] = molecular target: T1, hNav1.5; assay: Tonic block of hNav1.5 channels (resting state, holding potential −140 mV), whole-cell patch clamp in tsA201 cells; conditions: N = 5
Protocol: The tsA201 cell line is a derivative of the human embryonic kidney cell line HEK-293 (ATCC#CRL1537, Merck KGaA, Darmstadt, Germany). tsA201 cells were cultured at 37°C in a humidified atmosphere at 95% air and 5% CO2 in MEM (minimum essential medium, Gibco, Eggenstein, Germany) supplemented with 50 U/ml penicillin, 50 μg/ml streptomycin (Gibco), 2 mM L-glutamine (Boehringer, Mannheim, Germany), and 10% fetal calf serum (Gibco). The cells were grown on polyornithine-coated culture dishes to 40% confluency and transfected using the TransFectin LipidReagent kit (Bio-Rad, München, Germany).
Briefly, tsA201 cells were used for experiments 24–48 h after transfection. Membrane currents were recorded in the whole-cell recording mode using an EPC-9 amplifier and Patchmaster software (v2x73; HEKA, Lambrecht, Germany ([Hamill et al., 1981])). Before recording, cells were rinsed twice with an extracellular standard solution containing (in mM): 140 NaCl, 5 KCl, 1.5 CaCl2, 10 glucose and 12 HEPES; adjusted to a final pH of 7.3. Patch pipettes were drawn from borosilicate glass with tip resistances of about 2 MΩ when filled with (in mM): 125 CsF, 10 NaF, 1 MgCl2, 10 EGTA, 10 HEPES; adjusted to a final pH of 7.2. To improve sealing, tips were briefly dipped into 2% dimethylsilane dissolved in dichloromethane. Unless otherwise stated, cells were held at a holding potential of −140 mV from which channel activation was elicited by brief depolarizing pulses to −20 mV of 5 ms duration. To minimize voltage errors, the series resistance was compensated up to 80%. Cells with currents larger than 6 nA were excluded from evaluation.
The medium in the dish (1.5 ml) was continuously exchanged using a "global" bath perfusion with the inflow set to 4.5 ml/min and the outflow removing any excess fluid. Reagents were applied locally to the cells by the L/M-SPS-8 superfusion system (List, Darmstadt, Germany). Switching between the 8 channels of the superfusion system was controlled by magnetic valves. The local inlet (tip of an eight-barrelled pipette) was positioned at a distance of 50–100 μm upstream and the local outlet at about 300 μm downstream of the patch pipette. A constant flow rate of control and test solutions (1 ml/min) was achieved by means of a pressure control system (MPCU-3, Lorenz, Göttingen, Germany). The time of solution exchange was estimated from the changes in the liquid junction potential to be about 1 ms. If not otherwise stated, drugs were preapplied for 20 s before starting the experiments.
Concentration-inhibition curves for the estimation of Kr (IC50 at −140 mV; Figure 2) or Kapp (Figure 6) were fitted to the Hill equation ID/IC= 1/1+([D]/IC50)^n (1) ID and IC are the current amplitudes in the presence and absence of the drug (D). [D] is the concentration of the drug. […]

hNav1.5 [3] = molecular target: T1, hNav1.5; assay: Interaction with the inactivated state: steady-state concentration-response relationship
Protocol: Concentration-inhibition curves for the estimation of Kr (IC50 at −140 mV; Figure 2) or Kapp (Figure 6) were fitted to the Hill equation ID/IC= 1/1+([D]/IC50)^n (1) ID and IC are the current amplitudes in the presence and absence of the drug (D). [D] is the concentration of the drug. IC50 represents the concentration of the blocker that causes 50% inhibition and n is the Hill coefficient.
The affinity to the inactivated state (Ki) was calculated according to ([Bean et al., 1983]) as: 1/Kapp= h/Kr+ (1−h)/Ki (6) Kapp is the apparent affinity estimated at a selected membrane potential at which the amount of non-inactivated channels is given by h (estimated from the corresponding inactivation curve).
Activations were repeated several times at each concentration to achieve steady-state condition (Figure 6A). The holding potential was chosen individually for each cell to be around half maximal inactivation according to a preceding estimation of availability. Before the test pulse a short recovery (100 ms at −160 mV) was carried out (inset to Figure 6A). From the concentration relationship apparent half maximal effective concentrations (Kapp) were calculated using Eq. 1 (Figure 6B). The affinity for the inactivated channel was then calculated according to Eq. 6 which considers the varying amount of inactivated channels in individual experiments.
Activations were carried out every 30 s using a holding potential at which the channels were partly inactivated (relative amount of available channels in this experiment: h = 0.81). Immediately before the activations a short recovery (100 m s) at −160 mV was intercalated (inset). Activations were repeated at each condition until a near stable current amplitude was achieved. (B) The apparent IC50 (IC50app) was calculated from the concentration-dependent decline of the current amplitudes. The affinity to the inactivated state was calculated considering the current amount of available channels according to Eq. 6.

hNav1.5 [4] = molecular target: T1, hNav1.5; assay: Slow inactivation (10 s conditioning prepulse); conditions: slow inactivation fit (Eq. 5); for V50_1: N = 5
Protocol: Voltage dependence of activation was calculated in two steps: First, changes in driving force owing to the different test potentials were considered by calculating the conductance g according to g = I/V−ENa (2) Thereafter, normalized data were fitted with a Boltzmann equation of the form: g/gmax= 1/1+e^(V50 − V/k) (3) Voltage dependence of fast inactivation were fit using a Boltzmann equation of the form: I/Imax= 1/1+ e^(V − V50/k) (4) In case of slow inactivation Eq. 4 was extended by a second term and the additional parameter (S) which considers the steady-state level of the incomplete inactivation. I/Imax=(1−S)(a1/1+ e^(V− V501/k1)+ a2/1+ e^(V− V502/k2))+ S (5) Abbreviations used for voltage-dependent parameters: V and V50i are the actual membrane potentials and the potentials at which half maximal current (I)/conductance (g) occur, respectively. ENa indicates the reversal potential which was experimentally determined for each cell. The slope factors are given by ki and the relative amount of the individual terms are represented by ai. Constraint throughout: ∑i=1nai=1 .
In a next set of experiments, we directly investigated for a possible interaction with the slow inactivated state. To this end, similar experiments as shown in Figure 4 were conducted with the following deviations: the duration of the conditioning prepulse was set to 10 s, and a recovery period (100 ms) at −160 mV was inserted immediately before the test pulse to eliminate or minimize the contribution from fast-inactivation. […] Another hallmark for an interaction with the slow inactivated state is an ongoing increase in inhibition in the potential range (V50_2) where slow inactivation is expected to occur. In order to evaluate this we renormalized the data in the presence of atomoxetine with their respective control (Figure 7B).
FIGURE 7 Interaction with the slow-inactivated state (A) Infrequent (interval: 30 s) channel activations by step depolarisations to −20 mV were elicited after long lasting (10 s) conditioning prepulses to different potentials (inset). A short (100 ms) recovery period at −160 mV was inserted immediately before the test pulse. Data of normalized peak currents are plotted vs. the prepulse potential. Solid lines are fits according to Eq. 5 for control (open squares) and atomoxetine (3 µM) (filled symbols). […] (B) Plot of renormalized data was obtained by dividing the drug values by control values.

hNav1.5 [5] = molecular target: T1, hNav1.5; assay: Voltage dependence of fast inactivation (500 ms prepulse); assay type: cell-based; parameters: expressed in transfected cells; host or cells: tsA201 (HEK-293 derivative); conditions: for net drug-induced shift of half maximal fast inactivation (signed): N = 5
Protocol: Constraint throughout: ∑i=1nai=1 .
For establishing inactivation curves, the membrane potential was stepped to different prepulse potentials (from −140 to −45 mV; increment 5 mV) for 500 ms before channel activations were carried out by depolarizations to −20 mV. For estimation of inactivation parameters, the normalized peak currents were plotted vs. the prepulse potentials. Inactivation curves, characterized by inactivation midpoints and the curve slope were obtained by data fitting using Eq. 4. […] After a second control, atomoxetine was applied at a concentration of 3 and 10 µM (Figure 4A) For final evaluation of drug effects, first the endogenous shift was estimated for each cell individually by the difference between the two controls. […] We used a cell-specific endogenous shift instead of a global shift, as the endogenous shift is highly variable between individual cells.
FIGURE 4 Voltage dependence of fast inactivation (A) Data of a representative measurement series of normalized peak currents in the absence and presence of atomoxetine are shown. Solid lines represent fits according to Eq. 4.

hNav1.5 [6] = molecular target: T1, hNav1.5; assay: Voltage dependence of activation, whole-cell patch clamp; assay type: cell-based; parameters: expressed in transfected cells; host or cells: tsA201 (HEK-293 derivative)
hNav1.5 [7] = molecular target: T1, hNav1.5; assay: Block development, interaction with the inactivated state: kinetic parameters (double-pulse protocol); conditions: for remaining current at the longest inactivation time: prepulse −20 mV up to 32 s
Source text: The time constant (τ) of block development for the different concentrations of atomoxetine was estimated by single exponential fits of the form: I/Imax = S+ a1*e^(−t/τ1) (7) t denotes the time, a is the fraction of channels which is blocked, and S represents the residual current.
Association (kon in µM^−1s^−1) and dissociation rates (koff in s^−1) were estimated from the slope and the y-intercept of a linear regression where the inverse of the fast time constants (1/τ) was plotted vs. the drug concentration [D] […] 1/τ= koff+kon*[D] (8) The affinity for the inactivated state (Ki) was calculated according to: Ki= koff/kon (9)
Instead of this, we employed another double-pulse protocol in order to determine the time dependence of the interaction of atomoxetine with the inactivated state. The experimental scheme consisted of a conditioning prepulse to −20 mV for a variable duration (range: 0.002–32 s), a short recovery for 100 ms at −140 mV, followed by the test pulse to −20 mV (inset to Figure 5A). […] For estimation of rate constants the inverse of the time constants (1/τ) were plotted vs. the concentration of atomoxetine (Figure 5C).
The pulse protocol (inset) was applied in intervals of 20 s. The peak currents of the test pulse were normalized to the peak amplitude of the prepulse and plotted vs. its duration. Solid lines represent fits of single exponential functions to data obtained for control (open squares) or different concentrations of atomoxetine (B) Data normalized with respect to control (C) The inverse of the time constants of individual cells were plotted vs. the concentration of atomoxetine. […] N = 5.

hNav1.5 [8] = molecular target: T1, hNav1.5; assay: Use-dependent interaction (high frequency stimulation trains); conditions: for relative current amplitude of the 50th pulse related to the first pulse: 1 ms test pulse; for remaining current amplitude (use-dependence, pulse duration series): 10 Hz (Figure 9B)
Protocol: To investigate whether atomoxetine also interacts with the open channel, we first tested for a possible use-dependency. All these experiments were carried out at a holding potential of −140 mV and a test pulse to −20 mV with its duration set to 1 ms. This short activation time was chosen to minimize the time the channels spent in the inactivated state. After establishing stable baseline values using infrequent activations every 5 s (0.2 Hz) a train of high frequency stimulation (1, 3 10 Hz) was started. For evaluation, the peak current amplitude of each pulse was divided by the amplitude of the first response of the high frequency stimulation train. […] For quantification, the remaining current amplitudes of the 50th pulse were related to the first pulse. […] In order to analyse further if atomoxetine prefers an interaction with the open or fast inactivated state, we increased the test pulse duration up to a factor of 20.
FIGURE 9 Analysis for use-dependence at a pulsing frequency of 10 Hz (A) After establishing stable control responses (activations every 5 s), atomoxetine was preincubated for 20 s before test pulses (1 ms) were applied at a frequency of 10 Hz. […] The amplitudes which were obtained from the high frequency stimulation are related to the first pulse of each train.

hNav1.5 [9] = molecular target: T1, hNav1.5; assay: Recovery from inactivation (double pulse protocols); assay type: cell-based; parameters: expressed in transfected cells; host or cells: tsA201 (HEK-293 derivative)
Source text: Current amplitudes were normalized to the maximum peak amplitude of INa in the absence and presence of atomoxetine. Recovery time constants were estimated from double or triple exponential fits according to: I/Imax = 1− a1*e^(−t/τ1) −a2*e^(−t/τ2)− a3*e^(−t/τ3) (10)
Recovery from inactivation was estimated with double pulse protocols using two different durations for the inactivating pulse: 500 ms and 10 s. The test pulse was applied after a variable time spent at the recovery potential of −140 mV (inset Figure 8). Using the short inactivation time of 500 ms, recovery occurred with two time constants. In the absence of atomoxetine about 90% of the channels recovered with a fast time constant (τ 1 = 2.2 ± 0.2 ms), representing recovering from fast inactivation. The remainder recovered with a slower time constant (τ 2 = 37.7 ± 15.6 ms), probably representing recovery from slow inactivation. In the presence of atomoxetine the time constant of the fast component was hardly extended whereas those of the slow time constant was prolongated with little or no change in the relative amount of the two components (Figure 8A, Table 2). […] Using an inactivation time of 10 s, recovery has to be fitted with triple exponential functions, separating the recovery process in a fast, intermediate and a slow component (Figure 8B). In the presence of atomoxetine a profound increase in all time constants resulted. Moreover, the component of the fast time constant decreased and that of the slow component increased in a concentration dependent manner while the amount of the intermediate component stayed almost constant (Table 3).
FIGURE 8 Recovery from inactivation (A) The relative amount of available channels after increasing duration of recovery at −140 mV is illustrated. Inactivation was performed at −20 mV for 500 ms. The pulse protocol is illustrated by the inset. Interval between individual measurements was 10 s and atomoxetine was applied at 3 and 10 µM. Solid lines represent fits with two exponential functions according to Eq. 10. (B) Otherwise identical protocol as in (A) but with the inactivation time set to 10 s. For data fitting, three exponentials were required. For fit parameters see Table 2, N = 5.

SMILES: CNCCC(Oc1ccc(C(F)(F)F)cc1)c1ccccc1 (stereo not shown) [fluoxetine]
- ratio of affinity at holding potential −140 mV (resting state) versus −90 mV (hNav1.5 [1]): less than 10 fold
- ratio for the interaction with the resting state (peak current) vs. open channel (late current) (WCW-mutant): 3 fold
- ratio in affinity between F1760C and wildtype (F1760C): about 2 fold

SMILES: CNCC[C@@H](Oc1ccccc1C)c1ccccc1 [atomoxetine]
- IC50 (hNav1.5 [2]; half maximal effective concentration (Kr, IC50 at −140 mV; affinity for the resting state), drug preapplied 30 s): ~120 µM and 120 µM and 119 µM
- Hill coefficient (hNav1.5 [2]; tonic block): 1.47 ± 0.06
- IC50 (hNav1.5 [3]; Half-maximal effective concentrations (interaction with inactivated state), different experimental settings, abstract): 2000 to 3000 nM
- Ki (hNav1.5 [3]; Ki (inactivated state), single experiment of Figure 6B, Eq. 6): 1850 nM
- Ki (hNav1.5 [3]; affinity for the inactivated state (Ki), calculated from Kapp by Eq. 6, holding potential around half maximal inactivation, N = 5): 1590 ± 450 nM
- IC50 (hNav1.5 [3]; apparent IC50 (IC50app), single experiment of Figure 6B, partly inactivated channels): 2270 nM
- higher affinity for the inactivated state compared to the resting state (hNav1.5 [3]; depending on the applied protocol): about 50 fold
- V50_2 (hNav1.5 [4]; 3 µM): −65.5 ± 2.8 mV
- a1 (hNav1.5 [4]; 3 µM): 37.5 ± 18.7%
- k1 (hNav1.5 [4]; 3 µM): 5.2 ± 0.4 mV
- k2 (hNav1.5 [4]; 3 µM): 31.8 ± 1.9 mV
- V50_1 (hNav1.5 [4]; 3 µM): −101.3 ± 0.3 mV
- V50_2 (hNav1.5 [4]; 10 µM): −102.7 ± 3.9 mV
- a1 (hNav1.5 [4]; 10 µM): 71.1 ± 19.7%
- k1 (hNav1.5 [4]; 10 µM): 5.9 ± 0.2 mV
- k2 (hNav1.5 [4]; 10 µM): 34.2 ± 4.7 mV
- V50_1 (hNav1.5 [4]; 10 µM): −107.7 ± 0.2 mV
- net shift in positive direction of fast inactivation midpoint (hNav1.5 [5]; 3 µM atomoxetine, 500 ms prepulse, corrected for endogenous shift): 0.3 mV
- net drug-induced shift of half maximal fast inactivation (signed) (hNav1.5 [5]; 3 µM atomoxetine): +0.3 mV
- negative shift of fast inactivation midpoint (net) (hNav1.5 [5]; 10 µM atomoxetine, 500 ms prepulse, corrected for endogenous shift): 0.9 mV
- net drug-induced shift of half maximal fast inactivation (signed) (hNav1.5 [5]; 10 µM atomoxetine): −0.9 mV
- slope of the activation curve (hNav1.5 [6]; 3 µM atomoxetine): 6.6 ± 0.6 mV
- midpoint of the activation curve (half maximal activation) (hNav1.5 [6]; 3 µM atomoxetine, control −52.6 ± 3.5 mV): −54.5 ± 3.9 mV
- midpoint of the activation curve (hNav1.5 [6]; 10 µM atomoxetine): −55.5 ± 4.1 mV
- slope of the activation curve (hNav1.5 [6]; 10 µM atomoxetine): 6.9 ± 0.6 mV
- Ki (hNav1.5 [7]): 2570 nM
- remaining current at the longest inactivation time (hNav1.5 [7]; 3 µM atomoxetine, control 70.0 ± 14.0%): 32.6 ± 9.8%
- remaining current at the longest inactivation time (hNav1.5 [7]; 10 µM atomoxetine): 11.5 ± 8.0%
- time constant of block development (hNav1.5 [7]; 10 µM atomoxetine, single exponential fit, normalized to control): 4.3 ± 0.1 s
- kon (hNav1.5 [7]; read-out: rate constant for association (kon)): 18500 M⁻¹ s⁻¹
- koff (hNav1.5 [7]; read-out: rate constant for dissociation (koff)): 0.047 s⁻¹
- relative current amplitude of the 50th pulse related to the first pulse (hNav1.5 [8]; 1 Hz, 1 µM atomoxetine): 0.96 ± 0.01
- relative current amplitude of the 50th pulse related to the first pulse (hNav1.5 [8]; 1 Hz, 3 µM atomoxetine): 0.89 ± 0.05
- relative current amplitude of the 50th pulse related to the first pulse (hNav1.5 [8]; 1 Hz, 10 µM atomoxetine): 0.69 ± 0.09
- relative current amplitude of the 50th pulse related to the first pulse (hNav1.5 [8]; 3 Hz, 1 µM atomoxetine): 0.95 ± 0.02
- relative current amplitude of the 50th pulse related to the first pulse (hNav1.5 [8]; 3 Hz, 3 µM atomoxetine): 0.85 ± 0.07
- relative current amplitude of the 50th pulse related to the first pulse (hNav1.5 [8]; 3 Hz, 10 µM atomoxetine): 0.61 ± 0.09
- relative current amplitude of the 50th pulse related to the first pulse (hNav1.5 [8]; 10 Hz, 3 µM atomoxetine): 0.79 ± 0.03
- relative current amplitude of the 50th pulse related to the first pulse (hNav1.5 [8]; 10 Hz, 10 µM atomoxetine): 0.48 ± 0.07
- remaining current amplitude (use-dependence, pulse duration series) (hNav1.5 [8]; activation time 1 ms, 10 µM atomoxetine): 0.54 ± 0.03
- remaining current amplitude (use-dependence, pulse duration series) (hNav1.5 [8]; activation time 5 ms, 10 µM atomoxetine): 0.43 ± 0.03
- remaining current amplitude (use-dependence, pulse duration series) (hNav1.5 [8]; activation time 20 ms, 10 µM atomoxetine): 0.37 ± 0.09
- τ 1 (%) relative amount of component (hNav1.5 [9]; 3 µM, inactivation 10 s): 39.7 ± 2.2%
- τ 1 (recovery time constant) (hNav1.5 [9]; 3 µM, inactivation 10 s): 5.8 ± 0.7 ms
- τ 2 (%) relative amount of component (hNav1.5 [9]; 3 µM, inactivation 10 s): 22.7 ± 1.0%
- τ 2 (recovery time constant) (hNav1.5 [9]; 3 µM, inactivation 10 s): 139 ± 37.2 ms
- τ 3 (recovery time constant) (hNav1.5 [9]; 3 µM, inactivation 10 s): 3,524 ± 377 ms
- τ 1 (%) relative amount of component (hNav1.5 [9]; 3 µM, inactivation 500 ms): 90.3 ± 2.0%
- τ 2 (recovery time constant) (hNav1.5 [9]; 3 µM, inactivation 500 ms): 191.7 ± 74.2 ms
- τ 1 (recovery time constant) (hNav1.5 [9]; 3 µM, inactivation 500 ms, recovery at −140 mV): 3.1 ± 0.2 ms
- τ 1 (%) relative amount of component (hNav1.5 [9]; 10 µM, inactivation 10 s): 15.0 ± 1.6%
- τ 1 (recovery time constant) (hNav1.5 [9]; 10 µM, inactivation 10 s): 12.4 ± 0.3 ms
- τ 2 (%) relative amount of component (hNav1.5 [9]; 10 µM, inactivation 10 s): 17.2 ± 2.9%
- τ 2 (recovery time constant) (hNav1.5 [9]; 10 µM, inactivation 10 s): 417 ± 152 ms
- τ 3 (recovery time constant) (hNav1.5 [9]; 10 µM, inactivation 10 s): 4,859 ± 332 ms
- τ 1 (%) relative amount of component (hNav1.5 [9]; 10 µM, inactivation 500 ms): 86.2 ± 1.8%
- τ 1 (recovery time constant) (hNav1.5 [9]; 10 µM, inactivation 500 ms): 4.7 ± 0.3 ms
- τ 2 (recovery time constant) (hNav1.5 [9]; 10 µM, inactivation 500 ms): 1,259 ± 351 ms
